Structures are written as SMILES. Counter-ions that a name gives are not always drawn. Like-named read-outs stand apart in the source and are kept apart here.

For orientation: AC50 means the concentration at which the activity in the assay is half-maximal. For orientation: IC50 means the concentration at which inhibition is half-maximal. Lower therefore signals inhibition by little substance.

Common to all, as to assay: biochemical
One assay addresses human CYP2C9 (Homo sapiens, UniProt P11712). The conditions noted are these: for AC50: CYP2C9 AC50 (half-maximal activity concentration).
A further assay deals with human CYP2C19 (Homo sapiens, UniProt P33261). The conditions noted are these: for AC50: CYP2C19 AC50 (half-maximal activity concentration).
Another assay has as its target T1, human CYP1A2 (Homo sapiens, UniProt P05177).
T1 sequence (P05177 1-516): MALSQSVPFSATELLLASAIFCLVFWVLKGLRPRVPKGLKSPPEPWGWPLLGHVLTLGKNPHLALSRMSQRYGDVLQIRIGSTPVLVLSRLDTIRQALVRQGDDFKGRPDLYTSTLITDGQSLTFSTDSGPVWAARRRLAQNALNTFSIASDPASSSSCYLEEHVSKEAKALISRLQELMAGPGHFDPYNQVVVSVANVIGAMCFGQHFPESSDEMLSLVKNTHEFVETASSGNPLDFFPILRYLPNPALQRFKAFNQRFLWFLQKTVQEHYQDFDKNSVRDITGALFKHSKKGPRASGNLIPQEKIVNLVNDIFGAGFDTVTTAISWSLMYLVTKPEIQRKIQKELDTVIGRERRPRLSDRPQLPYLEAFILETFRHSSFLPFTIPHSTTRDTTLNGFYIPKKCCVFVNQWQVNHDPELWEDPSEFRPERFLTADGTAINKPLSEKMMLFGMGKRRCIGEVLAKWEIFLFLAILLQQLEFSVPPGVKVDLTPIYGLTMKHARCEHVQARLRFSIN
Conditions: for AC50: CYP1A2 AC50 (half-maximal activity concentration); call rule not given here.

Assay [1] deals with Photinus pyralis (firefly) luciferase (Photinus pyralis, UniProt P08659). The format is biochemical.
The next assay addresses CYP3A4 (Homo sapiens, UniProt P08684). Conditions: for AC50: CYP3A4 AC50 (half-maximal activity concentration).
In the next assay the target is human CYP2D6 (Homo sapiens, UniProt P10635). The conditions noted are these: for AC50: CYP2D6 AC50 (half-maximal activity concentration).
Setting [2] is: CYP2C9 IC50 (half-maximal inhibitory concentration).
The mark [3] stands for this setting: CYP2C19 IC50 (half-maximal inhibitory concentration).
[4] abbreviates: CYP1A2 IC50 (half-maximal inhibitory concentration).
[5] abbreviates: CYP3A4 IC50 (half-maximal inhibitory concentration).
Where [6] appears, read: CYP2D6 IC50 (half-maximal inhibitory concentration).

Sequence of human CYP2D6 (P10635 whole entry): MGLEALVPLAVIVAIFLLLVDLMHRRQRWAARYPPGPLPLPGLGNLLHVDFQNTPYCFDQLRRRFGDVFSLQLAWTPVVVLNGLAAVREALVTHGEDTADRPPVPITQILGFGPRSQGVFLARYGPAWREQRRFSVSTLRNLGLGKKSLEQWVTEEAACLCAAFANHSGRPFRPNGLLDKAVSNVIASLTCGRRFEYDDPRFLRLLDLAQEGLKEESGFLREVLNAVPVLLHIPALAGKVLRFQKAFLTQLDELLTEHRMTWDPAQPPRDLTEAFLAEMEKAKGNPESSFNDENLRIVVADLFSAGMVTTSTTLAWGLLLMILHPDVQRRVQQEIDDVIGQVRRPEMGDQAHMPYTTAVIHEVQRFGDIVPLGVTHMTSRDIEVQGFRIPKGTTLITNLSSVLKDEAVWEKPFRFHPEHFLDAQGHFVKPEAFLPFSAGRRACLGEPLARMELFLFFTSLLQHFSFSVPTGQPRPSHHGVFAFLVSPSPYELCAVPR
Sequence of Photinus pyralis (firefly) luciferase (P08659 whole entry): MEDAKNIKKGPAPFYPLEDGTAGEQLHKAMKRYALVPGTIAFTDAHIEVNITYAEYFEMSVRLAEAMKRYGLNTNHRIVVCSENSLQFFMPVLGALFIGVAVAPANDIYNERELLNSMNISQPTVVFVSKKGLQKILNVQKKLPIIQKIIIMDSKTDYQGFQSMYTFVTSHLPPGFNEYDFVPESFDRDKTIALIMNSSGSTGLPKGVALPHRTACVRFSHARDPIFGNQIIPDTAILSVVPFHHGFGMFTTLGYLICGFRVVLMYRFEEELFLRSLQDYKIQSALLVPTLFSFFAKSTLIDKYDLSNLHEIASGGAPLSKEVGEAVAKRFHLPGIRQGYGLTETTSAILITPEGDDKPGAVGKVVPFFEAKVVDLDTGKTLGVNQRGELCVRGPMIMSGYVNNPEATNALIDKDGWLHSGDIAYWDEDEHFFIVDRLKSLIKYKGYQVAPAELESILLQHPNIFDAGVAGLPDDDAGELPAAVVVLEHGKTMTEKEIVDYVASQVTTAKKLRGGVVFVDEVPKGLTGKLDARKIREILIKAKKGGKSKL
Sequence of human CYP2C9 (P11712 whole entry): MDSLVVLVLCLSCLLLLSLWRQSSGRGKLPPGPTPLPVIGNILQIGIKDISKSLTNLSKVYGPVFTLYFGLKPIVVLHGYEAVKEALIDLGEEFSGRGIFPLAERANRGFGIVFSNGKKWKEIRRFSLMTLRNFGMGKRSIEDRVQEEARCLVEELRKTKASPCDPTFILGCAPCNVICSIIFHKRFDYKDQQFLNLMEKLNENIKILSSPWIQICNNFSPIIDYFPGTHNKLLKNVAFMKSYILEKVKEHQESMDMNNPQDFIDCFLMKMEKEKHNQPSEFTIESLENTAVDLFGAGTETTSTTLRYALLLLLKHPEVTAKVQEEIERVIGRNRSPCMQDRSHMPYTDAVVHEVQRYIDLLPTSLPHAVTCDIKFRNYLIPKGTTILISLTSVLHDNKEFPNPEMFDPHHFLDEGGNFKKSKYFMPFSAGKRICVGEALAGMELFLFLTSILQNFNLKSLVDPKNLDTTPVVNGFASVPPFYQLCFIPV
Sequence of CYP3A4 (P08684 whole entry): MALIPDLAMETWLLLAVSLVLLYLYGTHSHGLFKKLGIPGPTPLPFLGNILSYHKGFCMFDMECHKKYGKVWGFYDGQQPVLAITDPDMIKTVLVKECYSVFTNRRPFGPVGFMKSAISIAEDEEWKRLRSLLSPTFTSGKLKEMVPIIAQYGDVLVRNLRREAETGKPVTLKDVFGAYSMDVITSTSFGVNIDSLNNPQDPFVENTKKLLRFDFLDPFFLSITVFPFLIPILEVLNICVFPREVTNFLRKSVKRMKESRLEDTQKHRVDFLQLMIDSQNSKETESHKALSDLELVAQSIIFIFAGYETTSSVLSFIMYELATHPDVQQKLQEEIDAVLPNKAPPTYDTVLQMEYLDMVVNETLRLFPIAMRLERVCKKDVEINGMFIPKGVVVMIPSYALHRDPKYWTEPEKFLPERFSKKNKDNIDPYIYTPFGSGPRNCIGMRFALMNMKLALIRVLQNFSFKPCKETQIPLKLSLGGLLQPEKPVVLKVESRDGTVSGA
Sequence of human CYP2C19 (P33261 whole entry): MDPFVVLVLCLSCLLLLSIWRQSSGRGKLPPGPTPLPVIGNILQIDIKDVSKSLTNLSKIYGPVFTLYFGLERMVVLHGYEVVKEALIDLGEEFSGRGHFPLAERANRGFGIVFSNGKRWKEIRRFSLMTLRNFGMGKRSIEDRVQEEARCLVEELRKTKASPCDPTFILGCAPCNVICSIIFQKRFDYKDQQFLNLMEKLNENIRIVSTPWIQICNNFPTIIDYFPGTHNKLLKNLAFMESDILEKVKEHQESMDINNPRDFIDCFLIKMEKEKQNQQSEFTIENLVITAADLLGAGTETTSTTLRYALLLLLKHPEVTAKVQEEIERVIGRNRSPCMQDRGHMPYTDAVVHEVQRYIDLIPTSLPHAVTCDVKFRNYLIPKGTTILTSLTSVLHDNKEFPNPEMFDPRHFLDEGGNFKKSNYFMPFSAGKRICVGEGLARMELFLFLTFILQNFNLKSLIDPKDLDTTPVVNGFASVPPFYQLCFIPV

In the case of `O=S(=O)(Oc1ccc(Cl)cc1Cl)c1ccccc1` [2,4-Dichlorophenyl benzenesulfonate], the half-maximal activity concentration (AC50) at human CYP2C9 was found to be 35.7 µM; on human CYP2C19 it was 0.77 µM; at human CYP1A2, 2.24 µM; at CYP3A4 it was 3.27 µM; on human CYP2D6 it was 51.1 µM. The half-inhibitory concentration (IC50) at human CYP2C9 (setting [2]) was 39.2 µM; against human CYP2C19 (setting [3]) it was 0.49 µM; on human CYP2C19 (IC50 CYP2C19 assay), 0.42 µM; on human CYP1A2 (setting [4]), 1.58 µM; in assay [1], 54.6 µM; against CYP3A4 (setting [5]) it was 2.12 µM. On human CYP2D6 (setting [6]), this compound had a concentration for half-maximal inhibition (IC50) of 64.4 µM.
In the case of `Nc1ccc2c(c1)C(=O)c1ccccc1C2=O` [2-Aminoanthraquinone], the IC50 turned out to be 22.5 µM against human CYP2C9 (setting [2]); 14 µM against human CYP2C19 (setting [3]); 0.2 µM at human CYP1A2 (setting [4]); 2.67 µM in assay [1]; 1.64 µM against CYP3A4 (setting [5]); 41.4 µM against human CYP2D6 (setting [6]).
Regarding `Cc1cc(-c2ccc(N)c(C)c2)ccc1N` [3,3'-Dimethylbenzidine], the IC50 at human CYP2C9 turned out to be 23.4 µM; on human CYP2C19 (CYP2C19 IC50) it was 6.24 µM; on human CYP1A2 (CYP1A2 IC50), 0.47 µM; at human CYP1A2 (IC50 CYP1A2 assay), 0.64 µM; in assay [1] it was 76.3 µM; at CYP3A4 (CYP3A4 IC50), 10.6 µM. Further, at human CYP2D6, the IC50 stood at 3.41 µM.
As for `CN(C)c1ccc(Cc2ccc(N(C)C)cc2)cc1` [4,4'-Methylenebis(N,N-dimethylaniline)], the concentration for half-maximal inhibition (IC50) against human CYP2C9 (setting [2]) was 25.5 µM; against human CYP2C19 (setting [3]), 0.22 µM; against human CYP1A2 (setting [4]), 4.55 µM; against CYP3A4 (setting [5]) it was 19.9 µM; at human CYP2D6 (setting [6]) it was 40.1 µM. In addition, the “Luciferase IC50 (half-maximal inhibitory concentration)” value in assay [1] is “Inactive”.
In the case of `Cc1cc(O)c(C(C)(C)C)cc1Sc1cc(C(C)(C)C)c(O)cc1C` [4,4'-Thiobis(6-tert-butyl-m-cresol)], the IC50 worked out at 4.21 µM against human CYP2C9 (setting [2]); 0.38 µM against human CYP2C19 (setting [3]); 40 µM against human CYP1A2 (setting [4]); 7.29 µM against CYP3A4 (setting [5]); 24.4 µM against human CYP2D6 (setting [6]). Further, in assay [1], the “Luciferase IC50 (half-maximal inhibitory concentration)” value is reported as “Inactive”.
As for `c1ccc(CCCc2ccncc2)cc1` [4-(3-Phenylpropyl)pyridine], the IC50 against human CYP2C9 stood at 1.86 µM; against human CYP2C19, 0.7 µM; at human CYP1A2, 1.14 µM; in assay [1], 55.3 µM; against CYP3A4, 0.43 µM; against human CYP2D6, 3.93 µM.
For the compound `OCc1c2ccccc2cc2ccccc12` [9-Anthracenemethanol], the concentration for half-maximal inhibition (IC50) on human CYP2C9 (setting [2]) worked out at 27.6 µM; on human CYP2C19 (setting [3]), 26.1 µM; against human CYP1A2 (setting [4]) it was 0.7 µM; in assay [1], 68.7 µM; on CYP3A4 (setting [5]), 29.8 µM; against human CYP2D6 (setting [6]), 60.1 µM.
As to `ClC1=C(Cl)C2(Cl)C3C4C=CC(C4)C3C1(Cl)C2(Cl)Cl` (stereo not drawn) [Aldrin], the 50% inhibitory concentration (IC50) came to 33.6 µM at human CYP2C9 (CYP2C9 IC50); 27.8 µM at human CYP2C19 (CYP2C19 IC50); 35.5 µM on human CYP1A2 (CYP1A2 IC50); 0.28 µM on CYP3A4 (CYP3A4 IC50); 44.9 µM against human CYP2D6 (CYP2D6 IC50). Further, the “Luciferase IC50” value in assay [1] was “Inactive”.
In the case of `CC(C)(C)C(O)C(Oc1ccc(-c2ccccc2)cc1)n1cncn1` (stereo not drawn) [Bitertanol], the IC50 on human CYP2C9 (setting [2]) stood at 7.56 µM; against human CYP2C19 (setting [3]) it was 48.3 µM; on human CYP1A2 (setting [4]) it was 48.8 µM; on CYP3A4 (setting [5]), 0.67 µM; against human CYP2D6 (setting [6]), 63.5 µM. Besides, in assay [1], the “Luciferase IC50 (half-maximal inhibitory concentration)” value was “Inactive”.
As to `Clc1ccc(C2(Cn3cncn3)CC(Br)CO2)c(Cl)c1` (stereo not drawn) [Bromuconazole], the IC50 against human CYP2C9 (setting [2]) worked out at 3.35 µM; against human CYP2C19 (setting [3]) it was 0.12 µM; on human CYP1A2 (setting [4]), 21.7 µM; against CYP3A4 (setting [5]), 0.08 µM; against human CYP2D6 (setting [6]) it was 21 µM. For the same compound, the “Luciferase IC50 (half-maximal inhibitory concentration)” value in assay [1] is “Inactive”.
Take `CCCCOCN(C(=O)CCl)c1c(CC)cccc1CC` [Butachlor]: the IC50 against human CYP2C9 (setting [2]) was 5.09 µM; on human CYP2C19 (setting [3]), 0.83 µM; against human CYP1A2 (setting [4]), 51.6 µM; at CYP3A4 (setting [5]) it was 6.9 µM; at human CYP2D6 (setting [6]), 50.9 µM. The “Luciferase IC50 (half-maximal inhibitory concentration)” value in assay [1] is recorded as “Inactive”.
In the case of `CCOCn1c(-c2ccc(Cl)cc2)c(C#N)c(Br)c1C(F)(F)F` [Chlorfenapyr], the IC50 against human CYP2C9 (setting [2]) amounted to 9.71 µM; at human CYP2C19 (setting [3]), 4.66 µM; against human CYP1A2 (setting [4]), 0.6 µM; against CYP3A4 (setting [5]) it was 37 µM; against human CYP2D6 (setting [6]) it was 33 µM. Besides, the “Luciferase IC50 (half-maximal inhibitory concentration)” value in assay [1] was “Inactive”.
Turning to `O=C1c2ccccc2C(=O)C1C(=O)C(c1ccccc1)c1ccc(Cl)cc1` (stereo not drawn) [Chlorophacinone], the AC50 on human CYP2C9 was determined as 0.76 µM; on human CYP2C19 it was 11 µM; on human CYP1A2, 8.52 µM; on CYP3A4, 33.6 µM; on human CYP2D6, 44.9 µM. For the same compound, the IC50 against human CYP2C9 (setting [2]) was 0.76 µM; on human CYP2C19 (setting [3]) it was 11 µM; against human CYP1A2 (setting [4]), 8.52 µM; at CYP3A4 (setting [5]), 33.6 µM; on human CYP2D6 (setting [6]) it was 44.9 µM. For the same compound, the “Luciferase IC50 (half-maximal inhibitory concentration)” value in assay [1] is reported as “Inactive”.
Turning to `CCOP(=S)(OCC)SC(CCl)N1C(=O)c2ccccc2C1=O` (stereo not drawn) [Dialifor], the IC50 against human CYP2C9 is 1.13 µM; against human CYP2C19 (setting [3]), 0.38 µM; at human CYP1A2 (setting [4]) it was 68.4 µM; on CYP3A4 (setting [5]) it was 1.65 µM; at human CYP2D6, 38.5 µM. In addition, the “Luciferase IC50 (half-maximal inhibitory concentration)” value in assay [1] is listed as “Inactive”.
Take `CC1COC(Cn2cncn2)(c2ccc(Oc3ccc(Cl)cc3)cc2Cl)O1` (stereo not drawn) [Difenoconazole]: the concentration for half-maximal inhibition (IC50) was determined as 1.22 µM at human CYP2C9 (setting [2]); 0.08 µM against human CYP2C19 (setting [3]); 27.4 µM against human CYP1A2 (setting [4]); 0.08 µM against CYP3A4 (setting [5]); 34.4 µM at human CYP2D6 (setting [6]). Moreover, in assay [1], the “Luciferase IC50 (half-maximal inhibitory concentration)” value was “Inactive”.
With `CC(C(O)c1ccccc1)N(C)CCOC(c1ccccc1)c1ccccc1` (stereo not drawn) [Difeterol], the IC50 is 16.8 ± 1.09 µM on human CYP2C9; 7.12 ± 1.98 µM on human CYP2C19; 23.5 ± 5.69 µM against human CYP1A2; 0.62 ± 0.07 µM against CYP3A4; 0.11 ± 0.06 µM at human CYP2D6. In assay [1], the “Luciferase IC50 (half-maximal inhibitory concentration)” value is given as “Inactive”.
With `CCOP(=S)(OCC)SCCS(=O)(=O)CC` [Disulfoton sulfone], the IC50 stood at 1.64 µM against human CYP2C9; 0.3 µM on human CYP2C19 (setting [3]); 26 µM on human CYP1A2 (setting [4]); 2.61 µM on CYP3A4 (setting [5]); 13.4 µM against human CYP2D6. Moreover, the “Luciferase IC50 (half-maximal inhibitory concentration)” value in assay [1] was “Inactive”.
For the compound `CCCCCCCCCCCCN` [Dodecylamine hydrochloride], the IC50 at human CYP2C9 (CYP2C9 IC50) came out at 6.64 µM; at human CYP2C19 (CYP2C19 IC50), 0.47 µM; at human CYP1A2 (CYP1A2 IC50), 2.55 µM; on CYP3A4 (CYP3A4 IC50), 34.3 µM; on human CYP2D6 (CYP2D6 IC50), 3.3 µM. Moreover, in assay [1], the “Luciferase IC50” value is “Inactive”.
Take `O=S1OCC2C(CO1)C1(Cl)C(Cl)=C(Cl)C2(Cl)C1(Cl)Cl` (stereo not drawn) [Endosulfan]: the IC50 was determined as 37.2 µM at human CYP2C9 (CYP2C9 IC50); 3.19 µM against human CYP2C19 (CYP2C19 IC50); 35.8 µM against human CYP1A2 (CYP1A2 IC50); 0.39 µM against CYP3A4 (CYP3A4 IC50); 18 µM at human CYP2D6 (CYP2D6 IC50). Further, the “Luciferase IC50” value in assay [1] is “Inactive”.
As to `CCC(=O)O[C@H]1[C@H](O[C@@H]2[C@@H](C)[C@H](O[C@H]3C[C@@](C)(OC)[C@@H](O)[C@H](C)O3)[C@@H](C)C(=O)O[C@H](CC)[C@@](C)(O)[C@H](O)[C@@H](C)C(=O)[C@H](C)C[C@@]2(C)O)O[C@H](C)C[C@@H]1N(C)C` [Erythromycin estolate], the IC50 worked out at 32.7 ± 12.3 µM on human CYP2C9; 47.1 µM against human CYP2C19; 33.5 ± 11 µM on human CYP1A2; 55 µM in assay [1]; 0.29 ± 0.04 µM at CYP3A4; 30.5 ± 9.76 µM against human CYP2D6.

The record behind these values is article PMC12155096 (International Journal of Molecular Sciences, 2025).
